In ChEMBL document CHEMBL5390310, “Rapid PROTAC Discovery Platform: Nanomole-Scale Array Synthesis and Direct Screening of Reaction Mixtures” (ACS Med Chem Lett, 2023):

molecular target: von Hippel-Lindau disease tumor suppressor/Bromodomain-containing protein 4 (Homo sapiens, UniProt O60885+P40337); assay: Protac activity at VHL E3 ligase/BRD4 in HEK293 cells assessed as BRD4 degradation by HiBiT assay; format: cell-based
Sequence (P40337 whole entry, looked up, other chains not shown): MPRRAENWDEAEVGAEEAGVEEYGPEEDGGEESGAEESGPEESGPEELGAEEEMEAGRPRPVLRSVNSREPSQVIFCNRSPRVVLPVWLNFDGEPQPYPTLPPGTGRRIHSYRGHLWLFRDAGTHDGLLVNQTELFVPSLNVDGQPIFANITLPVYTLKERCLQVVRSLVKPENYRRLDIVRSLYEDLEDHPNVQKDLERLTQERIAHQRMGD

SMILES	pDC50
Cc1sc2c(c1C)C(c1ccc(Cl)cc1)=N[C@@H](CC(=O)NCCCCCC(=O)NCCCC#Cc1cccc3c1CN(C1CCC(=O)NC1=O)C3=O)c1nnc(C)n1-2 (stereo in doubt)	7.3
Cc1ncsc1-c1ccc(CNC(=O)[C@@H]2C[C@@H](O)CN2C(=O)[C@@H](NC(=O)CCCCCCNC(=O)C[C@@H]2N=C(c3ccc(Cl)cc3)c3c(sc(C)c3C)-n3c(C)nnc32)C(C)(C)C)cc1 (stereo in doubt)	6.9
Cc1sc2c(c1C)C(c1ccc(Cl)cc1)=N[C@@H](CC(=O)N1CCN(CC#Cc3ccc4c(c3)CN(C3CCC(=O)NC3=O)C4=O)CC1)c1nnc(C)n1-2 (stereo in doubt)	8
Cc1sc2c(c1C)C(c1ccc(Cl)cc1)=N[C@@H](CC(=O)N1CCN(CCC3CCN(c4ccc5c(c4)CN(C4CCC(=O)NC4=O)C5=O)CC3)CC1)c1nnc(C)n1-2 (stereo in doubt)	8.8
Cc1ncsc1-c1ccc(CNC(=O)[C@@H]2C[C@@H](O)CN2C(=O)[C@@H](NC(=O)CN2CCN(C(=O)CCCCCNC(=O)C[C@@H]3N=C(c4ccc(Cl)cc4)c4c(sc(C)c4C)-n4c(C)nnc43)CC2)C(C)(C)C)cc1 (stereo in doubt)	6.3
Cc1sc2c(c1C)C(c1ccc(Cl)cc1)=N[C@@H](CC(=O)N1CCN(CCCC3CCN(c4ccc5c(c4)CN(C4CCC(=O)NC4=O)C5=O)CC3)CC1)c1nnc(C)n1-2 (stereo in doubt)	8.8
Cc1sc2c(c1C)C(c1ccc(Cl)cc1)=N[C@@H](CC(=O)NCCCCCC(=O)N1CCN(CCCC3CCN(c4ccc5c(c4)CN(C4CCC(=O)NC4=O)C5=O)CC3)CC1)c1nnc(C)n1-2 (stereo in doubt)	9.3
Cc1sc2c(c1C)C(c1ccc(Cl)cc1)=N[C@@H](CC(=O)N1CCN(CC#Cc3ccc4c(c3)CN(C3CCC(=O)NC3=O)C4=O)CC1)c1nnc(C)n1-2 (stereo in doubt; 4P)	8.5
Cc1sc2c(c1C)C(c1ccc(Cl)cc1)=N[C@@H](CC(=O)N1CCN(CCC3CCN(c4ccc5c(c4)CN(C4CCC(=O)NC4=O)C5=O)CC3)CC1)c1nnc(C)n1-2 (stereo in doubt; 6P)	9.4

Now from value to compound:

pDC50	SMILES
9.1	Cc1sc2c(c1C)C(c1ccc(Cl)cc1)=N[C@@H](CC(=O)N1CCN(CC3CCN(c4ccc5c(c4)CN(C4CCC(=O)NC4=O)C5=O)CC3)CC1)c1nnc(C)n1-2 (stereo in doubt)
9	Cc1sc2c(c1C)C(c1ccc(Cl)cc1)=N[C@@H](CC(=O)N1CCC(CCN3CCC4(CC3)CCN(c3ccc5c(c3)CN(C3CCC(=O)NC3=O)C5=O)CC4)CC1)c1nnc(C)n1-2 (stereo in doubt)
9.2	Cc1sc2c(c1C)C(c1ccc(Cl)cc1)=N[C@@H](CC(=O)N1CCC3(CCN(CC4CCN(c5ccc6c(c5)CN(C5CCC(=O)NC5=O)C6=O)CC4)CC3)CC1)c1nnc(C)n1-2 (stereo in doubt)
8.8	Cc1sc2c(c1C)C(c1ccc(Cl)cc1)=N[C@@H](CC(=O)N1CCC3(CC1)CCN(c1ccc4c(c1)CN(C1CCC(=O)NC1=O)C4=O)CC3)c1nnc(C)n1-2 (stereo in doubt)
9.7	Cc1sc2c(c1C)C(c1ccc(Cl)cc1)=N[C@@H](CC(=O)N1CCN(CC3CCN(c4ccc5c(c4)CN(C4CCC(=O)NC4=O)C5=O)CC3)CC1)c1nnc(C)n1-2 (stereo in doubt; 1P)
9.2	Cc1sc2c(c1C)C(c1ccc(Cl)cc1)=N[C@@H](CC(=O)N1CCC(CCN3CCC4(CC3)CCN(c3ccc5c(c3)CN(C3CCC(=O)NC3=O)C5=O)CC4)CC1)c1nnc(C)n1-2 (stereo in doubt; 2P)
9.1	Cc1sc2c(c1C)C(c1ccc(Cl)cc1)=N[C@@H](CC(=O)N1CCC3(CCN(CC4CCN(c5ccc6c(c5)CN(C5CCC(=O)NC5=O)C6=O)CC4)CC3)CC1)c1nnc(C)n1-2 (stereo in doubt; 3P)
8.6	Cc1sc2c(c1C)C(c1ccc(Cl)cc1)=N[C@@H](CC(=O)N1CCC3(CC1)CCN(c1ccc4c(c1)CN(C1CCC(=O)NC1=O)C4=O)CC3)c1nnc(C)n1-2 (stereo in doubt; 5P)
